According to patent publication US20190262347A1, “COMPOSITION COMPRISING COMBINATION OF EPICATECHIN AND ANTI-CANCER COMPOUND” (SPHAERA PHARMA PVT. LTD., priority 2016, published 2019):

System: HCT116 induced xenograft
Assay: 21 days efficacy study in HCT116 induced xenograft model in mice
Type: in vivo
Details: 1004 5 mpk, epicatechin 30 mpk
Method: Anticancer potential of epicatechin in combination with a PI3K/mTOR inhibitor is evaluated against cancer xenograft model in immunocompromised mice. CD1 nude mice are dosed for a period of 21 days with vehicle control, PI3K/mTOR inhibitor and a combination of PI3K/mTORinhibitor and epicatechin. […] The results are presented at Table 2, Table 3 and FIGS. 1a and 1b.

SMILES: C[C@H]1COCCN1c1nc(Oc2ccc(C(=O)N(C)C)cc2F)nc(-c2ccc(N)nc2)n1 [Compound 1004, (S)-4-((4-(6-aminopyridin-3-yl)-6-(3-methylmorpholino)-1,3,5-triazin-2-yl)oxy)-3-fluoro-N,N-dimethylbenzamide]
- T/C % (Mean), Treated/Control on 21st day (CD1 nude mice, HCT116 xenograft, 21st day, oral): 29%
- TGI % (Mean), tumor growth inhibition (CD1 nude mice, HCT116 xenograft, dosed 21 days, oral): 80%
- Tumor weight (HCT116 xenograft in mice): 0.72 g
